ChEMBL document CHEMBL5465560, “Selectivity Literature for EUbOPEN Chemogenomic Library” (2024)

Experiments:
[1] = target: Tyrosine-protein kinase Lck (Homo sapiens, UniProt P06239); assay: Selectivity interaction (KinomeScan (DiscoverX)) EUB0000045b LCK
[2] = target: Serine/threonine-protein kinase PLK1 (Homo sapiens, UniProt P53350); assay: Selectivity interaction (KinomeScan (DiscoverX)) EUB0000695a PLK1; conditions: at 100 nM
[3] = target: Vascular endothelial growth factor receptor 2 (Homo sapiens, UniProt P35968); assay: Selectivity interaction (KinomeScan (DiscoverX)) EUB0000666a KDR; conditions: at 10 µM
Chain of Vascular endothelial growth factor receptor 2 (P35968 whole entry): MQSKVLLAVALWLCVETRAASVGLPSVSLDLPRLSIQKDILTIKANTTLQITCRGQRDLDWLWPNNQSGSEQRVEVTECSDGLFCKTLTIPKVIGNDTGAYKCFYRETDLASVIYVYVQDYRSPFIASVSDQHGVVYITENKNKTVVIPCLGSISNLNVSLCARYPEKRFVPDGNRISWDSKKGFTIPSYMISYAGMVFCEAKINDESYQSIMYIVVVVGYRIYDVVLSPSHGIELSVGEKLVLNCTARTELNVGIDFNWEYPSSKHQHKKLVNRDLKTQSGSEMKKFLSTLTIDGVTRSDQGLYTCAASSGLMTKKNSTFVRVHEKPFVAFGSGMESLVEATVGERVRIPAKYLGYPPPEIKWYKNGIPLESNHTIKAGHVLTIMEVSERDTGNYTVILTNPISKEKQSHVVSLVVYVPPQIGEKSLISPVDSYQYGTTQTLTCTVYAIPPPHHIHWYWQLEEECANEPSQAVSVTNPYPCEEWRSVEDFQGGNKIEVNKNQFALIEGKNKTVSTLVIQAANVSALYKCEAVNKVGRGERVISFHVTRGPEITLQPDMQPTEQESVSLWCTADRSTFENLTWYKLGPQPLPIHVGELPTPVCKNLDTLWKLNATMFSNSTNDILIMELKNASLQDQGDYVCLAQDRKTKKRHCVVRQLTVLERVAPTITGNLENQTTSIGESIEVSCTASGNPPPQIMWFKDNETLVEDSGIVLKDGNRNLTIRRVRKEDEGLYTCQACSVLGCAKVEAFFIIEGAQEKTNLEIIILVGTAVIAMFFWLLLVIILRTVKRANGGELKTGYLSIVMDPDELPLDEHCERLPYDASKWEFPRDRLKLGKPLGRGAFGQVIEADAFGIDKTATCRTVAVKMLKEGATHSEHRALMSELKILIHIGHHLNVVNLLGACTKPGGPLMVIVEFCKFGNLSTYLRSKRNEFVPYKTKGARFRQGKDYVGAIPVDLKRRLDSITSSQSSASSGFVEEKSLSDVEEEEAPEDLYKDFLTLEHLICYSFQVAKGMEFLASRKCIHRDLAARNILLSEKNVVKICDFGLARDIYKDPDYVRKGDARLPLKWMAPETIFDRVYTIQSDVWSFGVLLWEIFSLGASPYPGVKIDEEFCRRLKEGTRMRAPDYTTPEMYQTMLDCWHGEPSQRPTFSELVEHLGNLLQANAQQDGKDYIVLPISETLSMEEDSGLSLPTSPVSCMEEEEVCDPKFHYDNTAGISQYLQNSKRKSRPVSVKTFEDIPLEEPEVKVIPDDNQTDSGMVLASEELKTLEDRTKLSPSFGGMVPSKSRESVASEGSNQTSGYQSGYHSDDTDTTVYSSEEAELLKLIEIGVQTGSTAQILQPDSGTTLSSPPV

[4] = target: Mitogen-activated protein kinase 3 (Homo sapiens, UniProt P27361); assay: Selectivity interaction (Upstate Kinase Profiler service (Millipore)) EUB0000056c MAPK3; conditions: at 1 µM
Chain of Mitogen-activated protein kinase 3 (P27361 whole entry): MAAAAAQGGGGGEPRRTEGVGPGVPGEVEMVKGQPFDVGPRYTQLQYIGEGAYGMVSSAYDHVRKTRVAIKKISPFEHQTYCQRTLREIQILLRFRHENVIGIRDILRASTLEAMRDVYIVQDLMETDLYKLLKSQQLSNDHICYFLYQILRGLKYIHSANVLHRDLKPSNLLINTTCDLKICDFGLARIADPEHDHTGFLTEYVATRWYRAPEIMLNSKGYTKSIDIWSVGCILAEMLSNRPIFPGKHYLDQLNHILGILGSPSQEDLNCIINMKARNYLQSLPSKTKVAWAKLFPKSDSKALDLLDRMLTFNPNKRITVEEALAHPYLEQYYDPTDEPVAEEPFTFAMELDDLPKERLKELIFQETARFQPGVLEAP

[5] = target: T1, Mitogen-activated protein kinase kinase kinase 6 (Homo sapiens) (UniProt O95382); assay: Selectivity interaction (ActivX KiNativ screen (ex vivo kinase selectivity in human PBMCs)) EUB0001619a MAP3K6; format: cell-based; conditions: PBMC, at 1 µM
T1 sequence (whole entry): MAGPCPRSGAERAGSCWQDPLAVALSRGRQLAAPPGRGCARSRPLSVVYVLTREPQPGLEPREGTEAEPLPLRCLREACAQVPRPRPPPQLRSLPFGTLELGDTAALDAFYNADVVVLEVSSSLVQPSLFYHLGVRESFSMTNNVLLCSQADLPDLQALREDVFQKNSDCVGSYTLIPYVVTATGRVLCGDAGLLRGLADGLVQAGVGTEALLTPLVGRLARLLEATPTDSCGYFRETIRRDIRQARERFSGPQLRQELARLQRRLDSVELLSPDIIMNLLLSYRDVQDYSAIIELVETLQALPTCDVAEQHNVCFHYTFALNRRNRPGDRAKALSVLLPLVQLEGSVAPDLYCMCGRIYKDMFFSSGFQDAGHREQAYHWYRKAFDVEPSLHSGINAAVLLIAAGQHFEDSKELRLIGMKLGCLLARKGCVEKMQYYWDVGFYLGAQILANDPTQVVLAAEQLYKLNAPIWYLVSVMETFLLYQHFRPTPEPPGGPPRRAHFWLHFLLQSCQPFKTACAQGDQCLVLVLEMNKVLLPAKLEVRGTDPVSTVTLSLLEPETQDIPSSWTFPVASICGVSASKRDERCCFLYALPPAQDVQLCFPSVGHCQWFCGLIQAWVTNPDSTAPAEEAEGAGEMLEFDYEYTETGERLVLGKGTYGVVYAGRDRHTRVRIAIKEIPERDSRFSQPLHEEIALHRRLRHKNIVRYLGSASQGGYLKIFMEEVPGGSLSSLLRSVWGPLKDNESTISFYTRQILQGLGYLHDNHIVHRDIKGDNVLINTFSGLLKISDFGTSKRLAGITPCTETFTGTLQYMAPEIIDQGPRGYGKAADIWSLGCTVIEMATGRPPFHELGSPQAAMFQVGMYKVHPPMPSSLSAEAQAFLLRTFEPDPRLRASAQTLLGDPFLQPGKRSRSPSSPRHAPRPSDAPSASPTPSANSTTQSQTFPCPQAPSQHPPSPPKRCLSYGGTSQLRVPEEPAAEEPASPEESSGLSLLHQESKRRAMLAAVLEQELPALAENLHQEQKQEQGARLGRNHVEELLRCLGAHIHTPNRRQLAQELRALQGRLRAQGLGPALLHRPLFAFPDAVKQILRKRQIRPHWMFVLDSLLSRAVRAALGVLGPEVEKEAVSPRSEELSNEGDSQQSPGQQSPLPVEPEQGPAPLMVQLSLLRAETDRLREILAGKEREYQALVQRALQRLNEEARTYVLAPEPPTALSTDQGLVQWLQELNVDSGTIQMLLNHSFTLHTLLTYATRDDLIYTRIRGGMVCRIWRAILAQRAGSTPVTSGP

[6] = target: T2, Serine/threonine-protein kinase TBK1 (Homo sapiens) (UniProt Q9UHD2); assay: Selectivity interaction (KinomeScan (DiscoverX)) EUB0000655a TBK1; conditions: at 10 µM
T2 sequence (whole entry): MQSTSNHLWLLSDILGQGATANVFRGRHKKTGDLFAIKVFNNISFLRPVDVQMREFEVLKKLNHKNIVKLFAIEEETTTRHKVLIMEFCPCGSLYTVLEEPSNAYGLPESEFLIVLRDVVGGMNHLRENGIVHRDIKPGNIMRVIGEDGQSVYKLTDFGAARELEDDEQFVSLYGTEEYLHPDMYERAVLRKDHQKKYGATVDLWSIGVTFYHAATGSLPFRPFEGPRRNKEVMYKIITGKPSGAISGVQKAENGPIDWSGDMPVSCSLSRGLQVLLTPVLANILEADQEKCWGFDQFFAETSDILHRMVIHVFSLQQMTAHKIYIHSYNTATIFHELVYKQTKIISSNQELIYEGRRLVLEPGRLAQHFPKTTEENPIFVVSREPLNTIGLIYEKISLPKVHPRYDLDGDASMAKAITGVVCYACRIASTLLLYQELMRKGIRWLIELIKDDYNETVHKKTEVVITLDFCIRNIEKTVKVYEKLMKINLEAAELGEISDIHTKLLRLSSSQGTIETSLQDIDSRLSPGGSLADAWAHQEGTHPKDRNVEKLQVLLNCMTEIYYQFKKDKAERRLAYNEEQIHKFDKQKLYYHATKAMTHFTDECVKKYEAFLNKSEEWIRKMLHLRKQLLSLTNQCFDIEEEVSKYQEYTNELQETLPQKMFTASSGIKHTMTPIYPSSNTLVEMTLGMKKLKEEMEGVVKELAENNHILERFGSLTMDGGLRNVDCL

[7] = target: Tyrosine-protein kinase Fyn (Homo sapiens) (UniProt P06241); conditions: at 10 µM
Chain of Tyrosine-protein kinase Fyn (Homo sapiens) (P06241 2-537 limits assumed): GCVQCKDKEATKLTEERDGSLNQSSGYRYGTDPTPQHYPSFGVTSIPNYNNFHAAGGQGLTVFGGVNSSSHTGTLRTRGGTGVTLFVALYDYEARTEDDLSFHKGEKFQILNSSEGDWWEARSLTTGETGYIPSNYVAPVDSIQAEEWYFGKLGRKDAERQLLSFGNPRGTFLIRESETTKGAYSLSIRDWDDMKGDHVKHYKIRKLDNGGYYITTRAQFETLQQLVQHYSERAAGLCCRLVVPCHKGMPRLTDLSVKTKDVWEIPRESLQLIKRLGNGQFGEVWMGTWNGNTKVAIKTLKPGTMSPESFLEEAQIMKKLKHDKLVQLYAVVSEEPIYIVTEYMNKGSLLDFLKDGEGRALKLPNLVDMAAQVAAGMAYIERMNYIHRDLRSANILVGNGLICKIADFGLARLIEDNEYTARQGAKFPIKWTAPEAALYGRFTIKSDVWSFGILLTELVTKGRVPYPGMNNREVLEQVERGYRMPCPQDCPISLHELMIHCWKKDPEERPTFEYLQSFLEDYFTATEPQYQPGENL

Chain of Tyrosine-protein kinase Lck (P06239 2-509 limits assumed): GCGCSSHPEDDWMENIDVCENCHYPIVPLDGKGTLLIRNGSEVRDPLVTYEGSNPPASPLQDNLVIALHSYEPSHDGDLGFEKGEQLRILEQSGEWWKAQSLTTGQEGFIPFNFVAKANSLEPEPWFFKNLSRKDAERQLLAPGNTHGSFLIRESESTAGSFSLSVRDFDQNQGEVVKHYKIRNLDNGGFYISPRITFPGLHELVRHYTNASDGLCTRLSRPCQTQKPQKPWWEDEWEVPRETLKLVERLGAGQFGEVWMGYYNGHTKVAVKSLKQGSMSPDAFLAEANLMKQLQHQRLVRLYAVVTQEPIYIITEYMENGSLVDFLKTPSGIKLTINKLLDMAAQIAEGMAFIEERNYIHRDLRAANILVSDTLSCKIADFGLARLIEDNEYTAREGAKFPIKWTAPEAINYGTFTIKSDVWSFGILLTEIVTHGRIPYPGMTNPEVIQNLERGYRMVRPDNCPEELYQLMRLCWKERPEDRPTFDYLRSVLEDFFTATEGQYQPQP
Chain of Serine/threonine-protein kinase PLK1 (P53350 whole entry): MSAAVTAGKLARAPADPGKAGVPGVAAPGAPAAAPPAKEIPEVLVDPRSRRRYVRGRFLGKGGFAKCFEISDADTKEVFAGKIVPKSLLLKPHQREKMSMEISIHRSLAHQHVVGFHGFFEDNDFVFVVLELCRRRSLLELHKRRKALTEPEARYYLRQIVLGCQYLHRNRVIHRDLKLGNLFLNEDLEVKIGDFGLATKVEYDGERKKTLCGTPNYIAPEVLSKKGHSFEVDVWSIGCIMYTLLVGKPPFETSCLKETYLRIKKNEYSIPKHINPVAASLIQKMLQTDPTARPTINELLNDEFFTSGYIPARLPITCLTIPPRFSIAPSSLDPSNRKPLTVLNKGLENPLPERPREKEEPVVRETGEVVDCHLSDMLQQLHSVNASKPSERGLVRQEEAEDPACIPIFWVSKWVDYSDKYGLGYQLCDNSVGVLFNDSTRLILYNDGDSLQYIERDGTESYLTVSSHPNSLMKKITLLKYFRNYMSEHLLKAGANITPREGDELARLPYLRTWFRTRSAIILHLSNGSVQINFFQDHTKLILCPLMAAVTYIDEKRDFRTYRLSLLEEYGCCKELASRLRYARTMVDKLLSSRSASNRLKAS

Molecule `C=CC(=O)Nc1cc(-n2c(=O)ccc3cnc4ccc(-c5ccc(NS(C)(=O)=O)cc5)cc4c32)ccc1C` has a % of control ([1]; at 1 µM) of 89% and a % of control ([1]; at 10 µM) of 80%.
In the case of `Cc1cc(F)c(C(=O)Nc2cccc(-c3nncn3C(C)C)n2)cc1-n1cnc(C2CC2)c1`, the % of control [2] is reported as 100%.
`O=C(NOC[C@H](O)CO)c1ccc(F)c(F)c1Nc1ccc(I)cc1F` was tested, and the % of control [3] was 84%.
Work on `Cc1ccc(-c2ccc3c(ccc4sc5c(c43)NC[C@@H](C)NC5=O)n2)cn1` yielded a % of inhibition [4] of -1%.
`N#Cc1cccc(-c2c[nH]c3ncnc(N4CCOCC4)c23)c1` gave a % of inhibition [5] of 21%.
Work on `CN(C)CCOc1ccc(-c2nc(-c3ccncc3)c(-c3ccc4c(c3)CC/C4=N\O)[nH]2)cc1` yielded a % of control [6] of 84%.
`CCN(CC)CCCCNc1ncc2cc(-c3cc(OC)cc(OC)c3)c(NC(=O)NC(C)(C)C)nc2n1` showed a % of control [7] of 100%.
